Data taken from article PMC10344917, “Affinity and cooperativity modulate ternary complex formation to drive targeted protein degradation” (Nature Communications, 2023).
Like-named read-outs stand apart in the source and are kept apart here.

How the values were obtained:
[1] = target: T1, VBC / BRD4^BD1 ternary complex (Homo sapiens, UniProt O60885+P40337); test: SPR ternary complex binding, VBC surface with preformed PROTAC/BRD4 BD1 complex; details: for Kd: SPR, VHL, PROTAC, error SEM, N = 3, read-out: KLPT (ternary complex binding affinity)
T1 construct: VHL (54-213), ElonginB (17-112) ElonginC (1-104); BRD4 (44-168); His6 (N, cleaved yes); made in house
Description: (§1) SPR experiments were performed on a Biacore 8 K or T200 instrument (Cytiva). […] The running buffer during immobilization was PBS with 0.005% P20. Either high-density (3000-4000 RU) or low-density (300-400 RU) VBC-functionalized surfaces were created, followed by equilibration in the running buffer for 3 h.
(§2) PROTACs (10 mM in 100% DMSO) were initially prepared at 200 nM in a running buffer (20 mM Tris pH 8.0, 250 mM NaCl, 1 mM TCEP, 0.01% P20, 0.2 mg/ml BSA) with a concentration of 2% DMSO. This solution was mixed at 1:1 ratio with a solution of 5 μM of the SMARCA2 or BRD4 bromodomain protein in the running buffer. […] For ternary experiments, solutions were injected sequentially in single-cycle kinetic format without regeneration (contact time 60 s, flow rate 80 μL/min, dissociation time 300 s) using a stabilization period of 60 s and syringe wash (50% DMSO) between injections onto a low-density VBC-functionalized surface.
(§3) Raw sensorgrams were processed by performing double reference subtraction, solvent correction, and analysis was done using Biacore Insight Evaluation Software. Kinetic analysis was performed by fitting data to a 1:1 Langmuir interaction model and a steady-state affinity model was used to evaluate equilibrium binding affinity.

VHL/EloB/EloC (VBC) = target: T2, VHL/EloB/EloC (VBC) (Homo sapiens, UniProt P40337); test: SPR binary binding of PROTAC to VBC-functionalized surface
T2 construct: VHL (54-213), ElonginB (17-112) ElonginC (1-104); made in house
Description: as §1
PROTACs (10 mM stocks in 100% DMSO) were diluted to 400 nM in a running buffer (20 mM Tris pH 7.5, 200 mM NaCl, 0.02% P20). This stock solution was then serially diluted in the running buffer containing final 2% DMSO. […] For SMARCA2 analysis, biotinylated proteins were introduced on a Series S streptavidin (SA) sensor chip at high-density (3000-4000 RU).
as §3

BRD4-NanoLuc = target: T3, BRD4-NanoLuc (Homo sapiens, UniProt O60885); test: NanoBRET target engagement assay, live and permeabilized HEK293 cells (BRD4); type: cell-based; details: for Availability Index: RBA test cmpd / RBA of JQ1 benchmark, surrogate for permeability; for IC50: BRD4 NanoBRET TE
T3 construct: expressed in transfected cells; host or cells: HEK293
Description: We employed a NanoBRET-based target engagement (TE) assay as reported earlier^7 for evaluating PROTACs relative permeability. In summary, live and permeabilized HEK293 cells with SMARCA2 or BRD4-NanoLuc were used for measuring IC50 values of different PROTACs. The relative shift in the IC50 was evaluated as relative binding affinity (RBA) by taking the ratio of IC50 values of live and permeabilized cells. Availability index (AI), which is a surrogate for permeability can be calculated by taking a ratio of RBA of compounds to permeable benchmark molecules.
Relative Binding Affinity (RBA) = Live-cell TE IC50 / Permeabilized-cell TE IC50
Availability Index (AI) = RBAtest cmpd / RBApermeable benchmark
Availability Index (AI) greater than one is indicative of reduced permeability compared to the benchmark.

BRD4^BD2 = target: T4, BRD4^BD2 (Homo sapiens, UniProt O60885); test: SPR binary binding of PROTAC to BRD4^BD2-functionalized surface; details: 1:1 Langmuir binding model, SD N=2
T4 construct: ternary complex formation with both bromodomains, BRD4^BD1 and BRD4^BD2, independently; made in house

BRD4 [2] = target: T5, BRD4 (Homo sapiens, UniProt O60885); test: BRD4 degradation time course in A375 cells (MSD); type: cell-based; details: single concentration at or near maximal activity
T5 construct: endogenous in cells; host or cells: A375
Excerpt: To measure the rate of protein degradation, we treated A375 cells with a single concentration of each PROTAC and measured the decrease in target abundance over time as shown in Figs. 4b and5b.
(§4) MSD electrochemiluminescence signals were subtracted by the average background signal from wells with lysis buffer alone. Normalized MSD values (POC) for individual compound treated wells were acquired by dividing background-subtracted assay signal by signal from vehicle control wells (cells + 0.1% DMSO) and multiplying by 100. This POC data was graphed using a nonlinear regression curve fit xy analysis and a log(inhibitor) vs response —variable slope (four parameter) model for dose response curves (Graphpad Prism 9, San Diego, CA, USA). To calculate area under the curve, all points on the curve were connected and vertical lines were drawn from each point down to y = 0, generating a series of trapezoids. The area of each trapezoid was determined using the equation A = (1/2)(h)(b1 + b2), where h = 1 (distance between points), b1 = POC of the first point and b2 = POC of the second point. The sum of all trapezoids provides an approximate area under the curve (AUC). For half-life (t1/2) determination in time course studies, a one-phase decay model was used for curve fitting and the time at which the curve crossed 50 POC was determined through interpolation (Graphpad Prism 9, San Diego, CA, USA).

BRD4 [3] = target: T5, BRD4; test: BRD4 degradation, MSD assay, dose response; type: cell-based; design: AUC (area under the dose-response curve): unit not given beside the values; details: A375 cells; for Dmax: A-375, BRD4 degraded; for Dmax / DC50: MSD assay, 4 h timepoint; for AUC (area under the dose-response curve): BRD4 MSD assay, 4 h; for DC50: BRD4 degradation
Description: A375 cells were treated with SMARCA2 or BRD4 degraders for 2 h (4 h for BRD4) and generated lysates. SMARCA2 or BRD4 protein was measured with a variation of a sandwich ELISA that was assembled from commercially available antibodies as well as reagents and instrumentation procured from Meso Scale Discovery (MSD). Degradation parameter, DC50, is not suitable for PROTACs that induce partial/incomplete DR curves at a fixed time point; maximum drop in target protein level (Dmax) >>0. Conversely, the area under the curve (AUC) can be calculated as a degradation activity parameter for any DR curve, and it encompasses both the degradation potency (i.e., DC50) and efficacy (i.e., Dmax) of PROTACs.
A 1:3 compound dose-response titration was diluted in growth media (1:20), added to appropriate wells of a cell culture plate (1:10) and then assay plates were incubated at 37 °C, 5% CO2.
Plates were washed with 300 µL per well MSD wash buffer (MSD R61TX-1) between each step. Following the last incubation, plates were washed with MSD wash buffer then 150 µL of MSD read buffer (MSD R92TC-2) was added to each well. Plates were immediately read on a MSD plate reader (MSD Sector Imager 6000).
as §4

[4] = target: T6, VBC / BRD4^BD2 ternary complex (Homo sapiens, UniProt O60885+P40337); test: SPR ternary complex binding, VBC surface with preformed PROTAC/BRD4 BD2 complex; details: for Kd: SPR, VHL, PROTAC, error SEM, N = 3, read-out: KLPT (ternary complex binding affinity)
T6 construct: VHL (54-213), ElonginB (17-112) ElonginC (1-104); ternary complex formation with both bromodomains, BRD4^BD1 and BRD4^BD2, independently; His6 (N); made in house
Description: as §1, §2, §3

[5] = SPR, error SEM, N = 3, read-out: KLP (binary binding affinity between E3 ligase VHL and PROTAC)
[6] = live HEK293 cells, read-out: Live-Cell TE
[7] = permeabilized HEK293 cells, read-out: Permeabilized-Cell TE

α (cooperativity, KLP/KLPT) [1]	Kd [1] [µM]	Kd (VHL/EloB/EloC (VBC); [5]) [µM]	Availability Index (BRD4-NanoLuc)	IC50 (BRD4-NanoLuc; [6]) [µM]	IC50 (BRD4-NanoLuc; [7]) [µM]	Kd (BRD4^BD2) [µM]	Initial Degradation Rate (BRD4 [2]) [%/min]	Dmax (BRD4 [3]) [%]	AUC (area under the dose-response curve) (BRD4 [3])	DC50 (BRD4 [3]) [µM]	α (cooperativity, KLP/KLPT) [4]	Kd [4] [µM]	SMILES	Kd (VHL/EloB/EloC (VBC)) [µM]
0.7	0.031 ± 0.004	0.022 ± 0.002	264.47	21.6	0.08	0.0205 ± 0.0012	1.38	91	192	0.518	3.7	0.006 ± 0.001	Cc1ncsc1-c1ccc(CNC(=O)[C@@H]2C[C@@H](O)CN2C(=O)[C@@H](NC(=O)COCc2cn(CCNC(=O)C[C@@H]3N=C(c4ccc(Cl)cc4)c4c(sc(C)c4C)-n4c(C)nnc43)nn2)C(C)(C)C)cc1 [Compound 12, (2S,4R)-1-((S)-2-(2-((1-(2-(2-((S)-4-(4-chlorophenyl)-2,3,9-trimethyl-6H-thieno[3,2-f][1,2,4]triazolo[4,3-a][1,4]diazepin-6-yl)acetamido)ethyl)-1H-1,2,3-triazol-4-yl)methoxy)acetamido)-3,3-dimethylbutanoyl)-4-hydroxy-N-(4-(4-methylthiazol-5-yl)benzyl)pyrrolidine-2-carboxamide]	
0.8	0.033 ± 0.004	0.026 ± 0.005	126.63	12.6	0.1	0.0096 ± 0.0009	0.46	69	460	2.26	1	0.0265 ± 0.004	Cc1ncsc1-c1ccc(CNC(=O)[C@@H]2C[C@@H](O)CN2C(=O)[C@@H](NC(=O)COCCOCCOCc2cn(CCNC(=O)C[C@@H]3N=C(c4ccc(Cl)cc4)c4c(sc(C)c4C)-n4c(C)nnc43)nn2)C(C)(C)C)cc1 [Compound 14, (2S,4R)-1-((S)-12-(tert-butyl)-1-(1-(2-(2-((S)-4-(4-chlorophenyl)-2,3,9-trimethyl-6H-thieno[3,2-f][1,2,4]triazolo[4,3-a][1,4]diazepin-6-yl)acetamido)ethyl)-1H-1,2,3-triazol-4-yl)-10-oxo-2,5,8-trioxa-11-azatridecan-13-oyl)-4-hydroxy-N-(4-(4-methylthiazol-5-yl)benzyl)pyrrolidine-2-carboxamide]	
1.2	0.0265 ± 0.004	0.031 ± 0.004	34.23	3.92	0.11	0.0162 ± 0.0026	0.21		733	> 10	0.8	0.039 ± 0.005	Cc1ncsc1-c1ccc(CNC(=O)[C@@H]2C[C@@H](O)CN2C(=O)[C@@H](NC(=O)COCCOCCOCCOCc2cn(CCNC(=O)C[C@@H]3N=C(c4ccc(Cl)cc4)c4c(sc(C)c4C)-n4c(C)nnc43)nn2)C(C)(C)C)cc1 [Compound 15, (2S,4R)-1-((S)-15-(tert-butyl)-1-(1-(2-(2-((S)-4-(4-chlorophenyl)-2,3,9-trimethyl-6H-thieno[3,2-f][1,2,4]triazolo[4,3-a][1,4]diazepin-6-yl)acetamido)ethyl)-1H-1,2,3-triazol-4-yl)-13-oxo-2,5,8,11-tetraoxa-14-azahexadecan-16-oyl)-4-hydroxy-N-(4-(4-methylthiazol-5-yl)benzyl)pyrrolidine-2-carboxamide]	

SMILES	α (cooperativity, KLP/KLPT) [1]	Kd [1] [µM]	Kd (VHL/EloB/EloC (VBC); [5]) [µM]	Availability Index (BRD4-NanoLuc)	IC50 (BRD4-NanoLuc; [6]) [µM]	IC50 (BRD4-NanoLuc; [7]) [µM]	Kd (BRD4^BD2) [µM]	Initial Degradation Rate (BRD4 [2]) [%/min]	Dmax (BRD4 [3]) [%]	AUC (area under the dose-response curve) (BRD4 [3])	DC50 (BRD4 [3]) [µM]	α (cooperativity, KLP/KLPT) [4]	Kd [4] [µM]	Kd (VHL/EloB/EloC (VBC)) [µM]
Cc1ncsc1-c1ccc(CNC(=O)[C@@H]2C[C@@H](O)CN2C(=O)[C@@H](NC(=O)COCCOCc2cn(CCNC(=O)C[C@@H]3N=C(c4ccc(Cl)cc4)c4c(sc(C)c4C)-n4c(C)nnc43)nn2)C(C)(C)C)cc1 [Compound 13, (2S,4R)-1-((S)-2-(2-(2-((1-(2-(2-((S)-4-(4-chlorophenyl)-2,3,9-trimethyl-6H-thieno[3,2-f][1,2,4]triazolo[4,3-a][1,4]diazepin-6-yl)acetamido)ethyl)-1H-1,2,3-triazol-4-yl)methoxy)ethoxy)acetamido)-3,3-dimethylbutanoyl)-4-hydroxy-N-(4-(4-methylthiazol-5-yl)benzyl)pyrrolidine-2-carboxamide]	0.6	0.029 ± 0.003		73.87	7.27	0.1	0.0117 ± 0.0009	0.76	78	309	0.726	1.7	0.01 ± 0.002	0.017 ± 0.002
Cc1ncsc1-c1ccc(CNC(=O)[C@@H]2C[C@@H](O)CN2C(=O)[C@@H](NC(=O)COCCOCCOCCOCCOCc2cn(CCNC(=O)C[C@@H]3N=C(c4ccc(Cl)cc4)c4c(sc(C)c4C)-n4c(C)nnc43)nn2)C(C)(C)C)cc1 [Compound 16, (2S,4R)-1-((S)-18-(tert-butyl)-1-(1-(2-(2-((S)-4-(4-chlorophenyl)-2,3,9-trimethyl-6H-thieno[3,2-f][1,2,4]triazolo[4,3-a][1,4]diazepin-6-yl)acetamido)ethyl)-1H-1,2,3-triazol-4-yl)-16-oxo-2,5,8,11,14-pentaoxa-17-azanonadecan-19-oyl)-4-hydroxy-N-(4-(4-methylthiazol-5-yl)benzyl)pyrrolidine-2-carboxamide]	1	0.033 ± 0.005		164.81	18	0.11	0.0158 ± 0.002	0.08		900	> 10	0.7	0.049 ± 0.006	0.033 ± 0.005
